Laboratory results published in patent US11260072B2, “MicroRNA-based methods and assays for osteocarcinoma” (3-D Matrix, Ltd., priority 2011, dated 2022).
d = 2'-deoxy (DNA); r = 2'-OH (RNA)

What was measured:
[1] = tested on: CD133^low HOS cells; assay: miR-133a expression in cisplatin-treated CD133low HOS cells; assay type: cell-based, human
Description: (§1) RNA isolation and quantitative real-time RT-PCR of mRNAs and miRNAs. Total RNA was purified from cells and tumor tissues with an RNeasy Mini Kit and RNase-Free DNase Set (QIAGEN). For quantitative polymerase chain reaction (qPCR) of mRNAs, cDNA was synthesized using High-Capacity cDNA Reverse Transcription Kit (Applied Biosystems). For each qPCR reaction, equal amounts of cDNA were mixed with Platinum SYBER Green qPCR SuperMix (Invitrogen) and specific primers (Table 1). Gene expression levels were normalized by beta actin (ACTB) or glyceraldehyde 3-phosphate dehydrogenase (GAPDH). For qPCR of miRNAs, miRNA was converted to cDNA using the TaqMan MicroRNA Reverse Transcription Kit (Applied Biosystems). RNU6B small nuclear RNA was amplified as an internal control. qPCR was performed using each miRNA-specific probe included with the TaqMan MicroRNA Assay on a Real-Time PCR System 7300 and SDS software (Applied Biosystems).

[2] = tested on: 143B cells; assay: qRT-PCR of miRNAs and CD133 mRNA in drug-treated 143B cells; assay type: cell-based, human; conditions: for CD133 mRNA expression: 143B cells; for expression of miR-1, miR-10b, and miR-133a: 3 days treatment, relative to untreated 143B cells
Description: as §1
In addition, the expression of miR-133a was enhanced by cisplatin in CD133^low HOS cells. […] CDDP-treated CD133^low HOS cells could form tumors with as few as 100 cells per injection, whereas the untreated CD133^low HOS cells could not (FIG. 23 and Table 9). […] Therefore, we reasoned that silencing of miR-133a before or during chemotherapy would prevent the increase of the expression of miR-133a, which enhanced TIC phenotypes and was induced by chemotherapeutics.

[3] = tested on: 143B-luc; assay: spontaneous lung metastasis model of osteosarcoma (143B-luc implanted orthotopically into tibia); assay type: in vivo, athymic nude mice
Experimental: (§2) Tumor transplantation experiments. Animal experiments were performed in compliance with the guidelines of the Institute for Laboratory Animal Research, National Cancer Center Research Institute. Athymic nude mice or NOD/SCID mice (CLEA Japan) were purchased at 4 weeks of age and given at least 1 week to adapt to their new environment prior to tumor transplantation. On day 0, mice were anesthetized with 3% isoflurane and the right leg disinfected with 70% ethanol. Cells were aspirated into a 1 mL tuberculin syringe fitted with a 27-G needle. The needle was inserted through the cortex of the anterior tuberosity of the tibia with a rotating movement to avoid cortical fracture. Once the bone was traversed, the needle was inserted further to fracture the posterior cortex of the tibia. A 100 μL volume of solution containing freshly isolated CD133^high and CD133^low HOS-Luc (10^2, 10^3, 10^4, 10^5 cells per site) or 143B-Luc (1.5×10^6) was injected while slowly moving back the needle.
Monitoring tumor growth, lung metastasis, and toxicity with/without LAN-anti-miR-133a. For the assessment of tumorigenicity between CD133^high and CD133^low HOS-Luc cells, NOD/SCID mice were injected with D-luciferin (150 mg/kg, Promega) by intraperitoneal injection. Ten minutes later, photons from firefly luciferase were counted using the IVIS imaging system (Xenogen Corp.) according to the manufacturer's instructions. Each experimental condition included 5 animals per group and monitoring once a week. For the evaluation of LNA-anti-miR-133a administration into spontaneous lung metastasis of osteosarcoma model mice, individual mice were injected with 10 mg/kg of LNA-anti-miR-133a or saline via the tail vain. LNA were injected on following days 4, 11, 18, 25, 32 postinoculation of 143B-Luc cells. Each experimental condition included 10 animals per group. The development of subsequent lung metastasis was monitored once a week in vivo by the bioluminescent imaging described above for 5 weeks. All data were analyzed using LivingImage software (version 2.50, Xenogen). On day 36, the primary tumor and lung in 5 mice of each group were resected at necropsy for their weight, bioluminescent, and histological analyses. The blood examination, weight of whole body as well as heart, liver, and skeletal muscle, and histopathological examination were performed for the assessment of toxicity.
To extend the in vitro findings and to determine whether silencing of miR-133a could be an effective therapeutic option for osteosarcoma treatment, the effect of LNA-133a on a spontaneous lung metastasis model of osteosarcoma was examined. Experimentally, 1.5×10^6 cells of 143B transfected with firefly luciferase gene (143B-luc) were implanted orthotopically into the right proximal tibia of athymic nude mice. The implanted tumor growth and the presence of distant metastases were analyzed weekly for luciferase bioluminescence using an in vivo imaging system (IVIS). […] To assess the efficacy of the new treatment protocol, results were compared with three control groups (n=10 each): a saline control group, an LNA group, and a CDDP group. At 5 weeks, half the mice in each group were euthanized for further analysis; the remaining mice were monitored for survival.

[4] = tested on: CD133^low HOS-luc cells; assay: tumorigenicity of CDDP-treated CD133low HOS-luc cells in mice; assay type: in vivo
Experimental: as §2, with “A 100 μL volume of solution containing freshly isolated CD133^high and CD133^low HOS-Luc (10^2, 10^3, 10^4, 10^5 cells per site) or 143B-Luc (1.5×10^6) was injected while slowly moving back the needle.” left out
Monitoring tumor growth, lung metastasis, and toxicity with/without LAN-anti-miR-133a. […] Ten minutes later, photons from firefly luciferase were counted using the IVIS imaging system (Xenogen Corp.) according to the manufacturer's instructions. […] The development of subsequent lung metastasis was monitored once a week in vivo by the bioluminescent imaging described above for 5 weeks. All data were analyzed using LivingImage software (version 2.50, Xenogen). […]

[5] = tested on: CD133^low SaOS2 cells; assay: siRNA knockdown, invasion assay; assay type: cell-based, human; conditions: siRNA 100 nM, 72 h after transfection
Experimental: Invasion assay. Invasion assays were performed by using 24-well BD BioCoat Invasion Chambers with Matrigel (Becton-Dickinson). 1×10^5 cells, suspended in 500 μL DMEM or RPMI 1640 medium without FBS, were added to the upper chamber, and DMEM or RPMI 1640 medium with 10% FBS was added to the lower chamber. After incubation for 24 h or 36 h, the cells on the upper surface of the filter were completely removed by wiping them with cotton swabs. The filters were fixed in methanol and stained with 1% toluidine blue in 1% sodium tetraborate (Sysmex). Filters were then mounted onto slides, and cells on lower surfaces were counted. Each assay was performed in triplicate.
(§3) Transfection with synthetic miRNAs, LNAs, and siRNAs. Synthetic hsa-miRs (Pre-miR-hsa-miR-1, -10b, -133a, and negative control (NC; Applied Biosystems, Table 2) and locked nucleic acids (LNAs) (LNA-1, -10b, -133a, and negative control, Exiqon, Table 3) were transfected into each type of cells at 30 nM each (final concentration) using DharmaFECT 1(GE Healthcare). Synthetic siRNAs (Bonac corporation, Table 4) were transfected into each type of cells at 100 nM each (final concentration) using DharmaFECT 1 (GE Healthcare). After 24 hours of incubation, cells were treated with chemotherapeutic agents for cytotoxicity assay or reseeded into invasion chambers for invasion assay.
(§4) Next, the expression of these molecules was reduced using siRNA-induced gene knockdown system to investigate whether these candidates are functionally important targets of miR-133a in osteosarcoma cells.

[6] = tested on: CD133^low SaOS2 cells; assay: siRNA knockdown, cell growth in the presence of cisplatin; assay type: cell-based, human; conditions: siRNA 100 nM, 72 h after transfection
Experimental: as §3, §4

[7] = tested on: miR-1; assay: knock-down of miR-1 in LNA-transfected CD133high SaOS2 cells; assay type: cell-based, human
Description: as §1
(§5) Transfection with synthetic miRNAs, LNAs, and siRNAs. […]

[8] = tested on: miR-10b; assay: knock-down of miR-10b in LNA-transfected CD133high SaOS2 cells; assay type: cell-based, human
Description: as §1, §5

Compound: N.N.[Cl][Pt][Cl] [CDDP, cis-diamtninedichloroplatinum (II)]
- expression of miR-133a [1]: enhanced
- CD133 mRNA expression [2]: induction
- CD133 mRNA expression ([2]; listed as cisplatin): induced
- expression of miR-1, miR-10b, and miR-133a [2]: increased level
- Luminescence of lung (mean) ([3]; IVIS bioluminescence): 2855
- tumor growth ([3]; compared to the other groups, LNA-133a 10 mg kg-1 i.v., CDDP 2 mg kg-1 i.p.): No significant differences in tumor growth
- Lung metastasis (mice with metastasis / mice in group) ([3]; day 35): 8/10
- Tumor weight (mean) ([3]; day 36, LNA-133a 10 mg kg-1 i.v., CDDP i.p.): 3.957 g
- Tumor Incidence ([4]; 100 cells per injection, cells treated with CDDP): 5/5
- in vivo tumorigenicity of CD133low HOS population ([4]; mouse, in vivo): increased in vivo tumorigenicity

Compound: UBA2: synthetic siRNA against UBA2 (Bonac corporation), Table 4 (sense GGACUGGGCUGAAGUACAATT; antisense UUGUACUUCAGCCCAGUCCTT; sugars from the 5' end r19 d2, backbone not given here)
- invasiveness after knockdown [5]: enhanced invasiveness

Compound: SNX30: synthetic siRNA against SNX30 (Bonac corporation), Table 4 (sense CCGAGAAGUUUGUGGUAAATT; antisense UUUACCACAAACUUCUCGGTT; sugars from the 5' end r19 d2, backbone not given here)
- invasiveness after knockdown [5]: enhanced invasiveness

Compound: ANXA2: synthetic siRNA against ANXA2 (Bonac corporation), Table 4 (sense UGACCAAGAUGCUCGGGAUTT; antisense AUCCCGAGCAUCUUGGUCATT; sugars from the 5' end r19 d2, backbone not given here)
- drug resistance after knockdown [6]: enhanced drug resistance
- invasiveness after knockdown [5]: enhanced invasiveness

Compound: ROD1: synthetic siRNA against ROD1 (Bonac corporation), Table 4 (sense GGGAAUGACAGCAAGAAAUTT; antisense AUUUCUUGCUGUCAUUCCCTT; sugars from the 5' end r19 d2, backbone not given here)
- drug resistance after knockdown [6]: enhanced drug resistance

Compound: LNA-1: locked nucleic acid antisense to hsa-miR-1-2, 5′-ACATACTTCTTTACATTCCA-3′ (Exiqon) (LNA-modified (Exiqon), pattern not given here)
- miR-1 expression [7]: knock-down

Compound: LNA-10b: locked nucleic acid antisense to hsa-miR-10b, 5′-ACAAATTCGGTTCTACAGGGT-3′ (Exiqon) (LNA-modified (Exiqon), pattern not given here)
- miR-10b expression [8]: knock-down

Compound: COc1cccc2c1C(=O)c1c(O)c3c(c(O)c1C2=O)C[C@@](O)(C(=O)CO)C[C@@H]3O[C@H]1C[C@H](N)[C@H](O)[C@H](C)O1 [DOX, doxorubicin]
- CD133 mRNA expression [2]: induction
- expression of miR-1, miR-10b, and miR-133a [2]: increased level

Compound: MAST4: synthetic siRNA against MAST4 (Bonac corporation), Table 4 (sense GGAGGUACCUUCUUCCAAATT; antisense UAUCAAACUUCCUCUUCUGTT; sugars from the 5' end r19 d2, backbone not given here)
- drug resistance after knockdown [6]: enhanced drug resistance

Compound: SGMS2: synthetic siRNA against SGMS2 (Bonac corporation), Table 4 (sense CCACUAGAGUGGUGGAAAATT; antisense UUUUCCACCACUCUAGUGGTT; sugars from the 5' end r19 d2, backbone not given here)
- invasiveness after knockdown [5]: enhanced invasiveness

Compound: DUSP11: synthetic siRNA against DUSP11 (Bonac corporation), Table 4 (sense CCAGAGGAUUUGCCAGAAATT; antisense UGUGUCUCGGAUUAGGAAGTT; sugars from the 5' end r19 d2, backbone not given here)
- drug resistance after knockdown [6]: enhanced drug resistance
- invasiveness after knockdown [5]: enhanced invasiveness
